Source: the supplement of paper PMC10307832

Legend:
Test in all cases: relative viability (nuclei count vs DMSO), 5 days (fraction); higher = more cells survive
HCC-15 = system: HCC-15
Outline: (§1)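 Each reported value is a median over duplicate plates. It expresses relative viability: treated-well nuclei count divided by vehicle-well nuclei count. Lung cancer cell lines in 1536-well plates were dosed by pin tool a day after seeding, alone with one drug or with a fixed anchor-drug dose plus five library-drug doses (not always all listed) in √10 steps, and nuclei were counted after 5 days.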

NCI-H358 = system: NCI-H358
Outline: as §1

NCI-H23 = system: NCI-H23
Outline: as §1

NCI-H1975 = system: NCI-H1975
Outline: as §1

NCI-H838 = system: NCI-H838
Outline: as §1

BEN = system: BEN
Outline: as §1

NCI-H1437 = system: NCI-H1437
Outline: as §1

201T = system: 201T
Outline: as §1

NCI-H2342 = system: NCI-H2342
Outline: as §1

NCI-H596 = system: NCI-H596
Outline: as §1

SK-MES-1 = system: SK-MES-1
Outline: as §1

HARA = system: HARA
Outline: as §1

HCC-44 = system: HCC-44
Outline: as §1

NCI-H1650 = system: NCI-H1650
Outline: as §1

EKVX = system: EKVX
Outline: as §1

COR-L23 = system: COR-L23
Outline: as §1

NCI-H1792 = system: NCI-H1792
Outline: as §1

NCI-H650 = system: NCI-H650
Outline: as §1

NCI-H441 = system: NCI-H441
Outline: as §1

HCC-827 = system: HCC-827
Outline: as §1

A-427 = system: A-427
Outline: as §1

SW 900 = system: SW 900
Outline: as §1

**Q.** Which results are given for `COc1cc2nccc(Oc3ccc(NC(=O)Nc4cc(C)on4)c(Cl)c3)c2cc1OC` [Tivozanib] + CCNC(=O)c1noc(-c2cc(C(C)C)c(O)cc2O)c1-c1ccc(CN2CCOCC2)cc1 [Luminespib] (partner 0.01 µM)?
**A.** relative viability (HCC-15; first compound 0.005 µM): 0.249; relative viability (HCC-15; first compound 0.01581 µM): 0.382; relative viability (HCC-15; first compound 0.05 µM): 0.327; relative viability (HCC-15; first compound 0.1581 µM): 0.398; relative viability (HCC-15; first compound 0.5 µM): 0.378; relative viability (NCI-H358; first compound 0.005 µM): 0.336; relative viability (NCI-H358; first compound 0.01581 µM): 0.568; relative viability (NCI-H358; first compound 0.05 µM): 0.478; relative viability (NCI-H358; first compound 0.5 µM): 0.339; relative viability (NCI-H23; first compound 0.01581 µM): 0.198; relative viability (NCI-H23; first compound 0.05 µM): 0.193; relative viability (NCI-H23; first compound 0.1581 µM): 0.206; relative viability (NCI-H23; first compound 0.5 µM): 0.207; relative viability (NCI-H1975; first compound 0.005 µM): 0.172; relative viability (NCI-H1975; first compound 0.01581 µM): 0.34; relative viability (NCI-H1975; first compound 0.05 µM): 0.199; relative viability (NCI-H1975; first compound 0.1581 µM): 0.198; relative viability (NCI-H1975; first compound 0.5 µM): 0.316; relative viability (NCI-H838; first compound 0.005 µM): 0.196; relative viability (NCI-H838; first compound 0.01581 µM): 0.265; relative viability (NCI-H838; first compound 0.05 µM): 0.501; relative viability (NCI-H838; first compound 0.5 µM): 0.237; relative viability (BEN; first compound 0.005 µM): 0.337; relative viability (BEN; first compound 0.01581 µM): 0.305; relative viability (BEN; first compound 0.05 µM): 0.508; relative viability (BEN; first compound 0.1581 µM): 0.148; relative viability (BEN; first compound 0.5 µM): 0.299; relative viability (NCI-H1437; first compound 0.005 µM): 1.14; relative viability (NCI-H1437; first compound 0.01581 µM): 1.11; relative viability (NCI-H1437; first compound 0.05 µM): 1.13; relative viability (NCI-H1437; first compound 0.1581 µM): 1.13; relative viability (NCI-H1437; first compound 0.5 µM): 1.11; relative viability (201T; first compound 0.005 µM): 1.06; relative viability (201T; first compound 0.01581 µM): 1.06; relative viability (201T; first compound 0.05 µM): 1.03; relative viability (201T; first compound 0.1581 µM): 1.06; relative viability (201T; first compound 0.5 µM): 1.06; relative viability (NCI-H2342; first compound 0.005 µM): 0.673; relative viability (NCI-H2342; first compound 0.01581 µM): 0.656; relative viability (NCI-H2342; first compound 0.05 µM): 0.802; relative viability (NCI-H2342; first compound 0.5 µM): 0.626; relative viability (NCI-H596; first compound 0.005 µM): 0.771; relative viability (NCI-H596; first compound 0.01581 µM): 1.04; relative viability (NCI-H596; first compound 0.05 µM): 1.04; relative viability (NCI-H596; first compound 0.5 µM): 0.858; relative viability (SK-MES-1; first compound 0.005 µM): 0.737; relative viability (SK-MES-1; first compound 0.01581 µM): 0.832; relative viability (SK-MES-1; first compound 0.05 µM): 0.773; relative viability (SK-MES-1; first compound 0.1581 µM): 0.837; relative viability (SK-MES-1; first compound 0.5 µM): 0.807; relative viability (HARA; first compound 0.005 µM): 0.686; relative viability (HARA; first compound 0.01581 µM): 0.795; relative viability (HARA; first compound 0.05 µM): 0.75; relative viability (HARA; first compound 0.1581 µM): 0.964; relative viability (HARA; first compound 0.5 µM): 0.689; relative viability (HCC-44; first compound 0.005 µM): 1.01; relative viability (HCC-44; first compound 0.01581 µM): 1.06; relative viability (HCC-44; first compound 0.05 µM): 0.927; relative viability (HCC-44; first compound 0.1581 µM): 1.19; relative viability (HCC-44; first compound 0.5 µM): 1.08; relative viability (NCI-H1650; first compound 0.005 µM): 0.172; relative viability (NCI-H1650; first compound 0.01581 µM): 0.209; relative viability (NCI-H1650; first compound 0.05 µM): 0.213; relative viability (NCI-H1650; first compound 0.1581 µM): 0.178; relative viability (NCI-H1650; first compound 0.5 µM): 0.203; relative viability (EKVX; first compound 0.005 µM): 0.856; relative viability (EKVX; first compound 0.01581 µM): 0.834; relative viability (EKVX; first compound 0.05 µM): 0.879; relative viability (EKVX; first compound 0.1581 µM): 0.908; relative viability (EKVX; first compound 0.5 µM): 0.847; relative viability (COR-L23; first compound 0.005 µM): 0.62; relative viability (COR-L23; first compound 0.01581 µM): 0.607; relative viability (COR-L23; first compound 0.05 µM): 0.748; relative viability (COR-L23; first compound 0.1581 µM): 0.597; relative viability (COR-L23; first compound 0.5 µM): 0.532; relative viability (NCI-H1792; first compound 0.005 µM): 0.457; relative viability (NCI-H1792; first compound 0.01581 µM): 0.344; relative viability (NCI-H1792; first compound 0.05 µM): 0.598; relative viability (NCI-H1792; first compound 0.1581 µM): 0.415; relative viability (NCI-H1792; first compound 0.5 µM): 0.551; relative viability (NCI-H650; first compound 0.005 µM): 0.807; relative viability (NCI-H650; first compound 0.01581 µM): 0.784; relative viability (NCI-H650; first compound 0.05 µM): 0.795; relative viability (NCI-H650; first compound 0.1581 µM): 0.692; relative viability (NCI-H650; first compound 0.5 µM): 0.708; relative viability (NCI-H441; first compound 0.005 µM): 0.367; relative viability (NCI-H441; first compound 0.01581 µM): 0.446; relative viability (NCI-H441; first compound 0.05 µM): 0.308; relative viability (NCI-H441; first compound 0.1581 µM): 0.322; relative viability (NCI-H441; first compound 0.5 µM): 0.399; relative viability (HCC-827; first compound 0.005 µM): 0.588; relative viability (HCC-827; first compound 0.01581 µM): 0.63; relative viability (HCC-827; first compound 0.05 µM): 0.413; relative viability (HCC-827; first compound 0.1581 µM): 0.467; relative viability (HCC-827; first compound 0.5 µM): 0.6; relative viability (A-427; first compound 0.005 µM): 1.09; relative viability (A-427; first compound 0.01581 µM): 0.902; relative viability (A-427; first compound 0.05 µM): 1.02; relative viability (A-427; first compound 0.1581 µM): 0.836; relative viability (A-427; first compound 0.5 µM): 1.01; relative viability (SW 900; first compound 0.005 µM): 0.174; relative viability (SW 900; first compound 0.01581 µM): 0.186; relative viability (SW 900; first compound 0.05 µM): 0.184; relative viability (SW 900; first compound 0.1581 µM): 0.167; relative viability (SW 900; first compound 0.5 µM): 0.172
